Results published in ChEMBL document CHEMBL2046291, “Potent inhibition of norovirus 3CL protease by peptidyl α-ketoamides and α-ketoheterocycles” (Bioorg Med Chem Lett, 2012).

Experiments:
Norovirus = assay: Antiviral activity against Norovirus infected in human HG23 cells; type: functional; details: read-out: ED50 (the source's name)
[1] = Inhibition of Norovirus recombinant 3CL protease using Edans-EPDFHLQGPEDLAK-Dabcyl as substrate for 30 mins by fluorometry

Structure (SMILES) | EC50 (Norovirus) [µM] | IC50 [1] [µM]
CC(C)NC(=O)C(=O)[C@H](CC1CCNC1=O)NC(=O)[C@H](Cc1ccccc1)NC(=O)OCc1ccccc1 (stereo not given in full) | 4.2 | 21.5
CC(C)C[C@H](NC(=O)OCc1ccccc1)C(=O)N[C@@H](CC1CCNC1=O)C(O)c1ncco1 (stereo not given in full) | > 20 | > 50
CC(C)C[C@H](NC(=O)OCc1ccccc1)C(=O)N[C@@H](CC1CCNC1=O)C(O)C(=O)NC1CCCCC1 (stereo not given in full) | > 20 | > 50
CC(C)C[C@H](NC(=O)OCc1ccccc1)C(=O)N[C@@H](CC1CCNC1=O)C(O)c1nccs1 (stereo not given in full) | 4.3 | 12.3
CC(C)C[C@H](NC(=O)OCc1ccccc1)C(=O)N[C@@H](CC1CCNC1=O)C(=O)c1nccs1 (stereo not given in full) | 4.2 | 8.8
CC(C)C[C@H](NC(=O)OCc1ccccc1)C(=O)N[C@@H](CC1CCNC1=O)C(O)C(=O)NCc1ccccc1 (stereo not given in full) | > 20 | > 50
CC(C)NC(=O)C(O)[C@H](CC1CCNC1=O)NC(=O)[C@H](Cc1ccccc1)NC(=O)OCc1ccccc1 (stereo not given in full) | 6.3 | 23.1
CCOC(=O)CNC(=O)C(O)[C@H](CC1CCNC1=O)NC(=O)[C@H](CC(C)C)NC(=O)OCc1ccccc1 (stereo not given in full) | > 10 | > 50
CC(C)C[C@H](NC(=O)OCc1ccccc1)C(=O)N[C@@H](CC1CCNC1=O)C(O)C(=O)NC(C)(C)C (stereo not given in full) | > 20 | > 50
CC(C)C[C@H](NC(=O)OCc1ccccc1)C(=O)N[C@@H](CC1CCNC1=O)C(O)C(=O)NC1CC1 (stereo not given in full) | > 10 | > 50
CCCCNC(=O)C(O)[C@H](CC1CCNC1=O)NC(=O)[C@H](CC(C)C)NC(=O)OCc1ccccc1 (stereo not given in full) | > 20 | > 50

Results, then the compound that gave them:

EC50 (Norovirus) [µM] | IC50 [1] [µM] | Structure (SMILES)
1.1 | 2.8 | CC(C)C[C@H](NC(=O)OCc1ccccc1)C(=O)N[C@@H](CC1CCNC1=O)C(=O)C(=O)NC(C)(C)C (stereo not given in full)
1.2 | 3.5 | CC(C)C[C@H](NC(=O)OCc1ccccc1)C(=O)N[C@@H](CC1CCNC1=O)C(=O)C(=O)NC1CCCCC1 (stereo not given in full)
1.1 | 3.4 | CC(C)C[C@H](NC(=O)OCc1ccccc1)C(=O)N[C@@H](CC1CCNC1=O)C(=O)C(=O)NC1CC1 (stereo not given in full)
1.8 | 7.1 | CC(C)C[C@H](NC(=O)OCc1ccccc1)C(=O)N[C@@H](CC1CCNC1=O)C(=O)C(=O)NCc1ccccc1 (stereo not given in full)
0.9 | 2.3 | CC(C)C[C@H](NC(=O)OCc1ccccc1)C(=O)N[C@@H](CC1CCNC1=O)C(=O)c1ncco1 (stereo not given in full)
0.8 | 2.1 | CCOC(=O)CNC(=O)C(=O)[C@H](CC1CCNC1=O)NC(=O)[C@H](CC(C)C)NC(=O)OCc1ccccc1 (stereo not given in full)
4.1 | 45.3 | CC(C)C[C@H](NC(=O)OCc1ccccc1)C(=O)N[C@@H](CC1CCNC1=O)C(O)C(=O)NC(C)C (stereo not given in full)
2.8 | 5.3 | CC(C)C[C@H](NC(=O)OCc1ccccc1)C(=O)N[C@@H](CC1CCNC1=O)C(=O)C(=O)NC(C)C (stereo not given in full)
1.3 | 4.1 | CCCCNC(=O)C(=O)[C@H](CC1CCNC1=O)NC(=O)[C@H](CC(C)C)NC(=O)OCc1ccccc1 (stereo not given in full)
